According to patent publication US8410113B2, “(2R)-1-(3-chloro-2-pyrazinyl)-2-methylpiperazine and salts thereof” (Biovitrum AB (publ), priority 2002, dated 2013):
Entries after “also recorded” stand apart in the source; their conditions may differ.

Columns and labels:
[1] = Crystallinity (X-rays / powder X-ray diffraction); assay type: physicochemical; settings: for Crystallinity (Powder X-Ray Diffraction): salts of Example 2C; for degree of crystallinity (Powder X-Ray Diffraction): salts of Example 2B, fumarate; for Crystallinity (X-Rays): salts of Example 2A
Source text: (§1) Crystallinity (Powder X-Ray Diffraction)
as §1

[2] = salts of Example 2C; assessment, no test described; cited from earlier work
[3] = Hygroscopicity (DVS, storage at RT/different RHs and at 40° C./75% RH); assay type: physicochemical
Procedure: Hygroscopicity (DVS, Storage at RT/Different RHs and at 40° C./75% RH)

[4] = controlled studies; cited from earlier work
Solubility = assay: Solubility
Source text: Solubility (Water, pH 1.2 and pH 7.4 Buffers)
(§2) Solubility and Intrinsic Dissolution Rate

[5] = Intrinsic dissolution rate; assay type: physicochemical; settings: for intrinsic dissolution rate (in words, order): salts of Example 2B
Source text: Intrinsic Dissolution Rate (pH 1.2)
as §2

[6] = Chemical stability (2 weeks at 65° C.); assay type: physicochemical; settings: salts of Example 2A, also RT/90% RH
Procedure: Chemical Stability (2 Weeks at 65° C.)

[7] = Polymorphism screen (RT evaporation, cooling crystallization at −20° C.); assay type: physicochemical; settings: salts of Example 2A, cooling crystallization at −20° C. in different solvent or mixtures

Compound: C[C@@H]1CNCCN1c1nccnc1OCCOc1cccnc1OCCN(C)C.O=C(O)C(=O)O [oxalate, (2R)-1-[3-(2-{[2-(2-dimethylaminoethoxy)-3-pyridinyl]oxy}ethoxy)-2-pyrazinyl]-2-methylpiperazine, oxalate]
- Crystallinity (Powder X-Ray Diffraction) [1]: high degree of crystallinity
- Toxicological acceptability [2]: inappropriate due to toxicological reasons
- Hygroscopicity ([3]; salts of Example 2C): low

Compound: CCN[C@@H](C)Cc1cccc(C(F)(F)F)c1 [dexfenfluramine]
- weight reduction [4]: weight reduction

Compound: CCOc1ncccc1OCCOc1nccnc1N1CCNC[C@H]1C.O=C(O)/C=C/C(=O)O [fumarate, (2R)-1-(3-{2-[(2-ethoxy-3-pyridinyl)oxy]ethoxy}-2-pyrazinyl)-2-methylpiperazine, fumarate, reference compound]
- degree of crystallinity (Powder X-Ray Diffraction) [1]: succinate>acetate>fumarate
- degree of crystallinity (Powder X-Ray Diffraction) ([1]; listed as fumarate salt): inferior to that of the succinate salt
- solubility (Solubility; 0.9% w/w NaCl, saline or isotonic): > 93 mg/mL
- solubility (Solubility; phosphate buffer, pH 7.4, aqueous buffer): > 68 mg/mL
- solubility (in words, comparison of salts) (Solubility; salts of Example 2B): inferior to that of the succinate salt
- intrinsic dissolution rate (in words, order) ([5]; fumarate): base<fumarate<succinate
- intrinsic dissolution rate (in words, order) ([5]; listed as fumarate salt, fumarate): inferior to that of the succinate salt

Compound: C[C@@H]1CNCCN1c1nccnc1OCCOc1cccnc1OCCN(C)C.O=C(O)CCC(=O)O [succinate, (2R)-1-[3-(2-{[2-(2-dimethylaminoethoxy)-3-pyridinyl]oxy}ethoxy)-2-pyrazinyl]-2-methylpiperazine, succinate]
- solubility (in words, comparison of salts) (Solubility; salts of Example 2B): higher than the fumarate salt
- Hygroscopicity ([3]; salts of Example 2C): very hygroscopic and deliquescent
- intrinsic dissolution rate (in words, order) [5]: base<fumarate<succinate

Compound: (2R)-methyl-1-{3-[2-(3-pyridinyloxy)ethoxy]-2-pyrazinyl}piperazine, cinnamate
- Crystallinity (X-Rays) [1]: Positive results
- Chemical stability [6]: Positive data
- behavior upon exposition to 40° C./75% RH ([3]; salts of Example 2A, 40° C./75% RH): good behavior
- Intrinsic dissolution rate (IDR) ([5]; salts of Example 2A, pH 1.2): 10^−3 mgsec^−1 cm^−2

Compound: C[C@@H]1CNCCN1c1nccnc1OCCOc1cccnc1OCCN(C)C.O=P(O)(O)O [Example 3C, (2R)-1-[3-(2-{[2-(2-dimethylaminoethoxy)-3-pyridinyl]oxy}ethoxy)-2-pyrazinyl]-2-methylpiperazine, phosphoric acid salt]
- melting point: 140 to 168 °C
- Crystallinity (Powder X-Ray Diffraction) [1]: predominantely crystalline to moderately crystallinity; also recorded: high crystallinity
- Toxicological acceptability [2]: low toxicity
- solubility (in words, comparison of salts) (Solubility; salts of Example 2C): high solubility
- solubility (Solubility; water): ≥ 590 mg/mL
- Hygroscopicity ([3]; salts of Example 2C): low and low hygroscopicity

Compound: C[C@@H]1CNCCN1c1nccnc1OCCOc1cccnc1.O=C(O)c1ccccc1 [benzoate, (2R)-methyl-1-{3-[2-(3-pyridinyloxy)ethoxy]-2-pyrazinyl}piperazine, benzoate]
- Crystallinity (X-Rays) [1]: Positive results
- Polymorphism [7]: did not show other polymorphs
- Chemical stability [6]: Positive data
- Hygroscopicity ([3]; salts of Example 2A, DVS, storage at RT/different RHs): cake formation and darkening

Compound: CCOc1ncccc1OCCOc1nccnc1N1CCNC[C@H]1C.O=C(O)CCC(=O)O
- melting point: 116 to 132 °C

Compound: CNCCC(Oc1ccc(C(F)(F)F)cc1)c1ccccc1 (stereo not drawn) [fluoxetine]
- weight reduction [4]: weight reduction
